# Data published in patent publication US11331289B2, “Antimicrobial composition” (priority 2017, dated 2022).
# Experiments:
# MRSA 16110 = assay: Time-killing curve, inoculum 5.10^5 CFU/ml (MIC 1 μg/ml); format: cell-based, Staphylococcus aureus
# Procedure: (§1) The objective of this study is to assess in vitro the time-killing curves of oxyclozanide against four strains of Methicillin-Resistant Staphylococcus from dogs.
# (§2) Two Methicillin-Resistant Staphylococcus aureus (MRSA) and two Methicillin-Resistant Staphylococcus pseudintermedius (MRSP) isolated from the clinics have been tested.
# (§3) The assessment of time-killing curves has been realized by a broth macrodilution method (Mueller-Hinton II Broth).
# (§4) Oxyclozanide is diluted in (DMSO) into sterile tubes in order to obtain the following concentrations from 800 to 6.25 μg/ml. Those concentrations and stock standard solution are then diluted (1/10) in Mueller-Hinton II Broth in order to obtain the following concentrations from […] (See Table 2).
# (§5) Each operation is performed under sterile conditions. Each working standard solution (10*the final active ingredient concentration) is distributed in tubes (1 ml, for a final volume of 10 ml after addition of 9 ml of inoculum). One tube without active ingredient is used as growth control (Concentration=0).
# (§6) Bacterial isolates are sub-cultured from one cryobead on Columbia agar supplemented with 5% of blood. Pure cultures are incubated during 18-24 hours at 37° C. Three to five isolated colonies of similar appearance are selected from a previous culture and transferred into tubes containing 9 ml of Mueller-Hinton II Broth. The broth is incubated during 12-18 hours at 37° C. 0.5 to 1 ml of this broth is inoculated to another Mueller-Hinton II Broth 9 ml tube which is incubated during 3 to 4 hours at 37° C. to reach the exponential growth phase. The bacterial inoculum grown exponential phase is suspended to an optical density of McFarland standard scale 0.5 equivalent to a bacterial density of 10^8 CFU/ml and then adjusted to a concentration of about 5.10^5 CFU/ml as indicated by the guideline CLSI M26-A and to a second inoculum tested: 10^6 CFU/ml.
# (§7) 9 ml of bacterial inoculum grown to exponential phase is added to 1 ml of active ingredient (or Mueller Hinton II Broth for the growth control). Tubes are incubated at 35° C. during 24 hours.
# (§8) At times 0, 2, 4, 6 and 24 hours, 100 μl of broth of each tube is sampled and diluted in microplates:
# (§9) Each well is re-cultured by streaking 10 μl on Columbia agar supplemented with 5% of blood. Plates are incubated at 37° C. during 18-24 hours incubation. Thus, residual bacterial concentrations are determined (CFU/ml). Results are expressed in log10 values of CFU/ml over-time in broth. Due to the procedure used, the minimal bacterial concentration that can be assessed is 10^2 CFU/ml.
# [1] = tested on: Methicillin-Resistant Staphylococcus pseudintermedius (MRSP) 16125, 16127; assay: Oxyclo MIC of MRSP strains; format: cell-based
# [2] = tested on: Methicillin-Resistant Staphylococcus pseudintermedius (MRSP); assay: Time-killing curves, conclusion over strains and inocula; format: cell-based; conditions: two inocula, two strains
# From the text: as §1, §2, §3
# [3] = tested on: Methicillin-Resistant Staphylococcus aureus (MRSA); assay: as above; format: cell-based; conditions: two inocula, two strains
# From the text: as §1, §2, §3
# [4] = tested on: Staphylococcus pseudintermedius; assay: Time-killing curves, conclusion over strains; format: cell-based
# Procedure: (§10) The time-killing curve is used to determine the bactericidal or bacteriostatic activity of the antibimicrobial substances. Time-killing curves of Oxyclozanide against canine isolates of Staphylococcus aureus and Staphylococcus pseudintermedius were obtained using broth macrodilution method. After contact of different fixed amounts of Oxyclozanide with an inoculum, viable bacteria are counted immediately after contact and after 1, 3, 6 and 24 hours. Counting is performed on agar medium without antimicrobial substance.
# (§11) Results are analyzed by plotting log10 CFU/ml versus time for each tested concentration. Bactericidal activity as defined by 99.9% killing of the inoculum is determined from time-killing curves by noting the presence of a ≥3 log10 decrease in CFU/ml.
# (§12) Bactericidal activity as defined by 99.9% killing of the inoculum is determined from time-killing curves by noting the presence of a ≥3 log10 decrease in CFU/ml.
# Staphylococcus aureus = assay: Time-killing curves, conclusion over strains; format: cell-based
# Procedure: as §10, §11, §12
# MRSP 16125 = assay: Time-killing curve, inoculum 10^6 CFU/ml (MIC 0.5 μg/ml); format: cell-based, Staphylococcus pseudintermedius
# Procedure: as §1, §2, §3, §4, §5, §6, §7, §8, §9
structure (smiles),measurement,setting,value
O=C(Nc1cc(Cl)cc(Cl)c1O)c1c(O)c(Cl)cc(Cl)c1Cl [Oxyclozanide],Counting results,"MRSA 16110; 1 MIC, 0 h",4.100E+05 CFU/ml
same,Counting results,"MRSA 16110; 1 MIC, 2 h",9.300E+04 CFU/ml
same,Counting results,"MRSA 16110; 1 MIC, 4 h",6.500E+04 CFU/ml
same,Counting results,"MRSA 16110; 1 MIC, 6 h",1.100E+05 CFU/ml
same,Counting results,"MRSA 16110; 1 MIC, 24 h",6.100E+05 CFU/ml
same,Counting results,"MRSA 16110; 2 MIC, 0 h",4.100E+05 CFU/ml
same,Counting results,"MRSA 16110; 2 MIC, 2 h",3.300E+03 CFU/ml
same,Counting results,"MRSA 16110; 2 MIC, 4 h",1.800E+03 CFU/ml
same,Counting results,"MRSA 16110; 2 MIC, 6 h",4.000E+02 CFU/ml
same,Counting results,"MRSA 16110; 2 MIC, 24 h",1.000E+02 CFU/ml
same,Counting results,"MRSA 16110; 4 MIC, 0 h",4.100E+05 CFU/ml
same,Counting results,"MRSA 16110; 4 MIC, 2 h",3.000E+02 CFU/ml
same,Counting results,"MRSA 16110; 4 MIC, 4 h",1.000E+02 CFU/ml
same,Counting results,"MRSA 16110; 4 MIC, 6 h",1.000E+02 CFU/ml
same,Counting results,"MRSA 16110; 4 MIC, 24 h",1.000E+02 CFU/ml
same,Counting results,"MRSA 16110; 8 MIC, 0 h",4.100E+05 CFU/ml
same,Counting results,"MRSA 16110; 8 MIC, 2 h",2.000E+02 CFU/ml
same,Counting results,"MRSA 16110; 8 MIC, 4 h",1.000E+02 CFU/ml
same,Counting results,"MRSA 16110; 8 MIC, 6 h",1.000E+02 CFU/ml
same,Counting results,"MRSA 16110; 8 MIC, 24 h",1.000E+02 CFU/ml
same,Counting results,"MRSA 16110; 16 MIC, 0 h",4.100E+05 CFU/ml
same,Counting results,"MRSA 16110; 16 MIC, 2 h",1.000E+02 CFU/ml
same,Counting results,"MRSA 16110; 16 MIC, 4 h",1.000E+02 CFU/ml
same,Counting results,"MRSA 16110; 16 MIC, 6 h",1.000E+02 CFU/ml
same,Counting results,"MRSA 16110; 16 MIC, 24 h",1.000E+02 CFU/ml
same,Time to obtain bactericidal effect at 4 MIC,"MRSA 16110; 16110/5.10^5 CFU/ml, >=3 log10 decrease in CFU",2 h
same,Counting results,"MRSA 16110; ¼ MIC, 0 h",4.100E+05 CFU/ml
same,Counting results,"MRSA 16110; ¼ MIC, 2 h",1.400E+06 CFU/ml
same,Counting results,"MRSA 16110; ¼ MIC, 4 h",9.500E+07 CFU/ml
same,Counting results,"MRSA 16110; ¼ MIC, 6 h",1.600E+08 CFU/ml
same,Counting results,"MRSA 16110; ¼ MIC, 24 h",1.100E+09 CFU/ml
same,Counting results,"MRSA 16110; ½ MIC, 0 h",4.100E+05 CFU/ml
same,Counting results,"MRSA 16110; ½ MIC, 2 h",6.300E+05 CFU/ml
same,Counting results,"MRSA 16110; ½ MIC, 4 h",9.900E+06 CFU/ml
same,Counting results,"MRSA 16110; ½ MIC, 6 h",3.100E+07 CFU/ml
same,Counting results,"MRSA 16110; ½ MIC, 24 h",1.900E+08 CFU/ml
same,MIC,[1]; MRSP 16125,0.5 µg/mL
same,MIC,[1]; MRSP 16127,0.25 µg/mL
same,Concentrations with concentration-dependent bactericidal effect,[2],>= 2 MIC
same,Concentrations with concentration-dependent bactericidal effect,[3],>= 2 MIC
same,Pharmacodynamic profile,[4],concentration-dependant
same,Contact time at which bactericidal effect (≥3 log10 decrease in CFU/ml) is observed,[4]; concentration of 4 μg/ml,24 hours
same,Contact time at which bactericidal effect (≥3 log10 decrease in CFU/ml) is observed,[4]; concentration of 8 μg/ml,6 to 24 hours
same,Pharmacodynamic profile,Staphylococcus aureus,concentration-dependant
same,Contact time at which bactericidal effect (≥3 log10 decrease in CFU/ml) is observed,Staphylococcus aureus; concentration of 4 μg/ml,24 hours
same,Contact time at which bactericidal effect (≥3 log10 decrease in CFU/ml) is observed,Staphylococcus aureus; concentration of 8 μg/ml,6 to 24 hours
same,Counting results,"MRSP 16125; 1 MIC, 0 h",1.000E+06 CFU/ml
same,Counting results,"MRSP 16125; 1 MIC, 2 h",1.000E+06 CFU/ml
same,Counting results,"MRSP 16125; 1 MIC, 4 h",1.500E+05 CFU/ml
same,Counting results,"MRSP 16125; 1 MIC, 6 h",1.000E+05 CFU/ml
same,Counting results,"MRSP 16125; 1 MIC, 24 h",4.100E+06 CFU/ml
same,Counting results,"MRSP 16125; 2 MIC, 0 h",1.000E+06 CFU/ml
same,Counting results,"MRSP 16125; 2 MIC, 2 h",1.600E+03 CFU/ml
same,Counting results,"MRSP 16125; 2 MIC, 4 h",1.000E+02 CFU/ml
same,Counting results,"MRSP 16125; 2 MIC, 6 h",1.000E+02 CFU/ml
same,Counting results,"MRSP 16125; 2 MIC, 24 h",1.000E+02 CFU/ml
same,Counting results,"MRSP 16125; 4 MIC, 0 h",1.000E+06 CFU/ml
same,Counting results,"MRSP 16125; 4 MIC, 2 h",5.000E+02 CFU/ml
same,Counting results,"MRSP 16125; 4 MIC, 4 h",1.000E+02 CFU/ml
same,Counting results,"MRSP 16125; 4 MIC, 6 h",1.000E+02 CFU/ml
same,Counting results,"MRSP 16125; 4 MIC, 24 h",1.000E+02 CFU/ml
same,Counting results,"MRSP 16125; 8 MIC, 0 h",1.000E+06 CFU/ml
same,Counting results,"MRSP 16125; 8 MIC, 2 h",1.000E+02 CFU/ml
same,Counting results,"MRSP 16125; 8 MIC, 4 h",1.000E+02 CFU/ml
same,Counting results,"MRSP 16125; 8 MIC, 6 h",1.000E+02 CFU/ml
same,Counting results,"MRSP 16125; 8 MIC, 24 h",1.000E+02 CFU/ml
same,Counting results,"MRSP 16125; 16 MIC, 0 h",1.000E+06 CFU/ml
same,Counting results,"MRSP 16125; 16 MIC, 2 h",1.000E+02 CFU/ml
same,Counting results,"MRSP 16125; 16 MIC, 4 h",1.000E+02 CFU/ml
same,Counting results,"MRSP 16125; 16 MIC, 6 h",1.000E+02 CFU/ml
same,Counting results,"MRSP 16125; 16 MIC, 24 h",1.000E+02 CFU/ml
same,Time to obtain bactericidal effect at 4 MIC,"MRSP 16125; 16125/10^6 CFU/ml, >=3 log10 decrease in CFU",2 h
same,Counting results,"MRSP 16125; ¼ MIC, 0 h",1.000E+06 CFU/ml
same,Counting results,"MRSP 16125; ¼ MIC, 2 h",1.500E+06 CFU/ml
same,Counting results,"MRSP 16125; ¼ MIC, 4 h",1.000E+07 CFU/ml
same,Counting results,"MRSP 16125; ¼ MIC, 6 h",1.000E+08 CFU/ml
same,Counting results,"MRSP 16125; ¼ MIC, 24 h",2.600E+09 CFU/ml
same,Counting results,"MRSP 16125; ½ MIC, 0 h",1.000E+06 CFU/ml
same,Counting results,"MRSP 16125; ½ MIC, 2 h",1.800E+06 CFU/ml
same,Counting results,"MRSP 16125; ½ MIC, 4 h",2.800E+06 CFU/ml
same,Counting results,"MRSP 16125; ½ MIC, 6 h",3.400E+06 CFU/ml
same,Counting results,"MRSP 16125; ½ MIC, 24 h",1.900E+08 CFU/ml
